Results reported in patent publication US11827628B2, “Compositions and methods for inhibition of the JAK pathway” (Rigel Pharmaceuticals, Inc., priority 2005, dated 2023).

Tested on: Primary human T-cells
Assay: Primary Human T-Cell Proliferation Assay Stimulated with IL-2 (CellTiter-Glo)
Format: cell-based
Conditions: Homo sapiens, T-cell, primary human T-cells stimulated with IL-2, proliferation; read-out: IC50, Example 42
Method in brief: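 Peripheral blood T-cells pre-activated with anti-CD3/anti-CD28 and IL-2 were washed free of IL-2, then cultured with compound plus IL-2 for 72 hours at 37° C, duplicate wells. Viability read as ATP by CellTiter-Glo luminescence; IC50 reported.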

Row | Structure (SMILES) | IC50 [nM]
1 | Cc1ccc(Nc2ncc(F)c(Nc3ccc(CO)cc3)n2)cc1S(N)(=O)=O [VI-52, N2-(3-Aminosulfonyl-4-methylphenyl)-5-fluoro-N4-(4-hydroxymethylphenyl)-2,4-pyrimidinediamine] | 162
2 | C#CCOc1ccc(Nc2nc(Nc3ccc(C)c(S(N)(=O)=O)c3)ncc2F)cc1 [VI-53, N2-(3-Aminosulfonyl-4-methylphenyl)-5-fluoro-N4-[4-(prop-2-ynyloxy)phenyl]-2,4-pyrimidinediamine] | 181
3 | C=Cc1ccc(Nc2nc(Nc3ccc(C)c(S(N)(=O)=O)c3)ncc2F)cc1 [VI-54, N2-(3-Aminosulfonyl-4-methylphenyl)-5-fluoro-N4-(4-vinylphenyl)-2,4-pyrimidinediamine] | 967
4 | C#CCOc1ccc(Nc2nc(Nc3ccc(Cl)c(S(N)(=O)=O)c3)ncc2F)cc1 [VI-55, N2-(3-Aminosulfonyl-4-chlorophenyl)-5-fluoro-N4-[4-(prop-2-ynyloxy)phenyl]-2,4-pyrimidinediamine] | 625
5 | C#CCOc1ccc(Nc2nc(Nc3ccc(C)c(S(N)(=O)=O)c3)ncc2F)cc1Cl [VI-59, N2-(3-Aminosulfonyl-4-methylphenyl)-N4-[3-chloro-4-(prop-2-ynyloxy)phenyl]-5-fluoro-2,4-pyrimidinediamine] | 340
6 | C#CCOc1ccc(Nc2nc(Nc3ccc(C)c(S(N)(=O)=O)c3)ncc2F)cc1F [VI-60, N2-(3-Aminosulfonyl-4-methylphenyl)-5-fluoro-N4-[3-fluoro-4-(prop-2-ynyloxy)phenyl]-2,4-pyrimidinediamine] | 187
7 | CC#CCOc1ccc(Nc2nc(Nc3ccc(C)c(S(N)(=O)=O)c3)ncc2F)cc1 [VI-61, N2-(3-Aminosulfonyl-4-methylphenyl)-N4-[4-(but-2-ynyloxy)phenyl]-5-fluoro-2,4-pyrimidinediamine] | 185
8 | C#CCOc1ccc(Nc2nc(Nc3ccc(C(C)C)c(S(N)(=O)=O)c3)ncc2F)cc1 [VI-63, N2-[3-Aminosulfonyl-4-(2-propyl)phenyl]-5-fluoro-N4-[4-(prop-2-ynyloxy)phenyl]-2,4-pyrimidinediamine] | 363
9 | C#CCNc1ccc(Nc2nc(Nc3ccc(C)c(S(N)(=O)=O)c3)ncc2F)cc1 [VI-65, N2-(3-Aminosulfonyl-4-methylphenyl)-5-fluoro-N4-[4-(prop-2-ynylamino)phenyl]-2,4-pyrimidinediamine] | 209
10 | C#CCOc1ccc(Nc2nc(Nc3ccc(C)c(S(=O)(=O)NC)c3)ncc2F)cc1 [VI-68, 5-Fluoro-N2-(4-methyl-3-methylaminosulfonylphenyl)-N4-[4-(prop-2-ynyloxy)phenyl]-2,4-pyrimidinediamine] | 742
11 | C#CCOc1ccc(Nc2nc(Nc3ccc(N4CCN(C)CC4)c(S(N)(=O)=O)c3)ncc2F)cc1 [VI-70, N2-[3-Aminosulfonyl-4-(1-methylpiperazin-4-yl)phenyl]-5-fluoro-N4-[4-(prop-2-ynyloxy)phenyl]-2,4-pyrimidinediamine] | 311
12 | C#CCOC(=O)NCc1ccc(Nc2nc(Nc3cccc(S(N)(=O)=O)c3)ncc2F)cc1 [VI-74, N2-(3-Aminosulfonylphenyl)-5-fluoro-N4-{4-[(prop-2-ynyloxy)carbonylaminomethyl]phenyl}-2,4-pyrimidinediamine] | 348
13 | NS(=O)(=O)c1cccc(Nc2ncc(F)c(Nc3ccc(CCCF)cc3)n2)c1 [VI-83, N2-(3-Aminosulfonylphenyl)-5-fluoro-N4-[4-(3-fluoropropyl)phenyl]-2,4-pyrimidinediamine] | 293
14 | Cc1ccc(Nc2ncc(F)c(Nc3ccc(CCCF)cc3)n2)cc1S(N)(=O)=O [VI-84, N2-(3-Aminosulfonyl-4-methylphenyl)-5-fluoro-N4-[4-(3-fluoropropyl)phenyl]-2,4-pyrimidinediamine] | 514
15 | NS(=O)(=O)c1ccc(Nc2ncc(F)c(Nc3ccc(CCCO)cc3)n2)cc1 [VI-85, N2-(4-Aminosulfonylphenyl)-5-fluoro-N4-[4-(3-hydroxypropyl)phenyl]-2,4-pyrimidinediamine] | 762
16 | NS(=O)(=O)c1cccc(Nc2ncc(F)c(Nc3ccc(CCCO)cc3)n2)c1 [VI-86, N2-(3-Aminosulfonylphenyl)-5-fluoro-N4-[4-(3-hydroxypropyl)phenyl]-2,4-pyrimidinediamine] | 178
17 | NS(=O)(=O)c1ccc(Nc2ncc(F)c(Nc3ccc(CCCCO)cc3)n2)cc1 [VI-88, N2-(4-Aminosulfonylphenyl)-5-fluoro-N4-[4-(4-hydroxybutyl)phenyl]-2,4-pyrimidinediamine] | 1190
18 | NS(=O)(=O)c1cccc(Nc2ncc(F)c(Nc3ccc(CCCCO)cc3)n2)c1 [VI-89, N2-(3-Aminosulfonylphenyl)-5-fluoro-N4-[4-(4-hydroxybutyl)phenyl]-2,4-pyrimidinediamine] | 171
19 | NS(=O)(=O)c1cccc(Nc2ncc(F)c(Nc3ccc(CCCCF)cc3)n2)c1 [VI-92, N2-(3-Aminosulfonylphenyl)-5-fluoro-N4-[4-(4-fluorobutyl)phenyl]-2,4-pyrimidinediamine] | 107

Row | Structure (SMILES) | IC50 [nM]
20 | NS(=O)(=O)c1cc(Nc2ncc(F)c(Nc3ccc(O)cc3)n2)ccc1F [VI-100, N2-(3-Aminosulfonyl-4-fluorophenyl)-5-fluoro-N4-(4-hydroxyphenyl)-2,4-pyrimidinediamine] | 74.3
21 | Cc1ccc(Nc2ncc(F)c(Nc3ccc(O)cc3)n2)cc1S(N)(=O)=O [VI-102, N2-(3-Aminosulfonyl-4-methylphenyl)-5-fluoro-N4-[4-hydroxyphenyl]-2,4-pyrimidinediamine] | 135
22 | COc1ccc(Nc2nc(Nc3cccc(S(N)(=O)=O)c3)ncc2F)cc1Cl [VI-107, N2-(3-Aminosulfonylphenyl)-5-fluoro-N4-(4-methoxy-3-chlorophenyl]-2,4-pyrimidinediamine] | 74.1
23 | NS(=O)(=O)c1cccc(Nc2ncc(F)c(Nc3ccc(Cl)c(Cl)c3)n2)c1 [VI-110, N2-(3-Aminosulfonylphenyl)-N4-(3,4-dichlorophenyl)-5-fluoro-2,4-pyrimidinediamine] | 345
24 | Cc1ccc(Nc2ncc(F)c(Nc3ccc(C)c(S(N)(=O)=O)c3)n2)cc1S(N)(=O)=O [VI-114, N2,N4-Bis-(3-aminosulfonyl-4-methylphenyl)-5-fluoro-2,4-pyrimidinediamine] | 2240
25 | COc1ccc(Nc2nc(Nc3ccc(N4CCN(C)CC4)c(S(N)(=O)=O)c3)ncc2F)cc1Cl [VI-116, N2-[3-Aminosulfonyl-4-(4-methylpiperazine-1-yl)phenyl]-N4-(3-chloro-4-methoxyphenyl)-5-fluoro-2,4-pyrimidinediamine] | 174
26 | COc1ccc(Nc2nc(Nc3cccc(S(N)(=O)=O)c3)ncc2F)cn1 [VII-6, N2-(3-Aminosulfonylphenyl)-5-fluoro-N4-(2-methoxypyrid-5-yl)-2,4-pyrimidinediamine] | 2000
27 | COc1ccc(Nc2nc(Nc3ccc(C)c(S(N)(=O)=O)c3)ncc2F)nc1N [VII-9, N2-(3-Aminosulfonyl-4-methylphenyl)-N4-[2-amino-3-methoxypyrid-6-yl]-5-fluoro-2,4-pyrimidinediamine] | 2720
28 | CN1C(=O)C(C)(C)S(=O)(=O)c2ccc(Nc3nc(Nc4ccc(S(N)(=O)=O)cc4)ncc3F)cc21 [VII-12, N2-(4-Aminosulphonylphenyl)-5-fluoro-N4-(2,2,4-trimethyl-1,1,3-trioxo-benzo[1,4]thiazin-6-yl)-2,4-pyrimidinediamine] | 6690
29 | Cc1ccc(Nc2ncc(C)c(Nc3ccc4c(c3)NC(=O)CO4)n2)cc1S(N)(=O)=O [VII-30, N2-(3-Aminosulphonyl-4-methylphenyl)-5-methyl-N4-(3-oxo-benz[1,4]oxazin-6-yl)-2,4-pyrimidinediamine] | 26.8
30 | Cc1cnc(Nc2ccc(S(N)(=O)=O)cc2)nc1Nc1ccc2c(c1)NC(=O)CO2 [VII-31, N2-(4-Aminosulphonylphenyl)-5-methyl-N4-(3-oxo-benz[1,4]oxazin-6-yl)-2,4-pyrimidinediamine] | 174
31 | Cc1cnc(Nc2cccc(S(N)(=O)=O)c2)nc1Nc1ccc2c(c1)NC(=O)CO2 [VII-32, N2-(3-Aminosulphonylphenyl)-5-methyl-N4-(3-oxo-benz[1,4]oxazin-6-yl)-2,4-pyrimidinediamine] | 32.1
32 | Cc1cnc(Nc2cccc(S(N)(=O)=O)c2)nc1Nc1ccc2c(c1)N(C)C(=O)CS2 [VII-35, N2-(3-Aminosulphonylphenyl)-5-methyl-N4-(4-methyl-3-oxo-benzo[1,4]thiazin-6-yl)-2,4-pyrimidinediamine] | 46.1
33 | Cc1ccc(Nc2ncc(F)c(Nc3ccc4c(c3)NC(=O)CS4)n2)cc1S(N)(=O)=O [VII-44, N2-(3-Aminosulphonyl-4-methyl-phenyl)-5-fluoro-N4-(3-oxo-4H-benzo[1,4]thiazin-6-yl)-2,4-pyrimidinediamine] | 546
34 | CN1C(=O)CSc2ccc(Nc3nc(Nc4ccc(S(N)(=O)=O)cc4)ncc3F)cc21 [VII-48, N2-(4-Aminosulfonylphenyl)-5-fluoro-N4-(4-methyl-3-oxo-benz[1,4]thiazin-6-yl)-2,4-pyrimidinediamine] | 336
35 | CN1C(=O)CSc2ccc(Nc3nc(Nc4cccc(S(N)(=O)=O)c4)ncc3F)cc21 [VII-49, N2-(3-Aminosulfonylphenyl)-5-fluoro-N4-(4-methyl-3-oxo-benz[1,4]thiazin-6-yl)-2,4-pyrimidinediamine] | 54.9
36 | Cc1ccc(Nc2ncc(F)c(Nc3ccc4oc(C#N)cc4c3)n2)cc1S(N)(=O)=O [VII-53, N2-(3-Aminosulfonyl-4-methylphenyl)-N4-(2-cyanobenzofuran-5-yl)-5-fluoro-2,4-pyrimidinediamine] | 484
37 | NC(=O)c1cc2cc(Nc3nc(Nc4cccc(S(N)(=O)=O)c4)ncc3F)ccc2o1 [VII-54, N2-(3-Aminosulfonylphenyl)-N4-(2-aminocarbonylbenzofurane-5-yl)-5-fluoro-2,4-pyrimidinediamine] | 596
38 | Cc1ccc(Nc2ncc(F)c(Nc3ccc4sccc4c3)n2)cc1S(N)(=O)=O [VII-57, N2-(3-Aminosulfonyl-4-methylphenyl)-N4-(benzothiophen-5-yl)-5-fluoro-2,4-pyrimidinediamine] | 818
